Results from ChEMBL document CHEMBL4888484, “Replenishing the malaria drug discovery pipeline: Screening and hit evaluation of the MMV Hit Generation Library 1 (HGL1) against asexual blood stage Plasmodium falciparum ,using a nano luciferase reporter read-out” (2022).

Key:
[1] = Hit confirmation in dose-response curve in HepG2 cytotoxicity assay, at 72h; assay type: toxicity, cell-based; design: timepoint 72 hour; settings: human, HepG2 cells
[2] = system: Plasmodium falciparum; experiment: Hit confirmation in dose-response curve in NF54 nanoGlo assay, at 12h; assay type: functional, organism-based, Erythrocyte; design: timepoint 12 hour; settings: Plasmodium falciparum, NF54, Erythrocyte, 12 h
[3] = system: Plasmodium falciparum; experiment: Hit confirmation in dose-response curve in NF54 nanoGlo assay, at 72h; assay type: functional, organism-based, Erythrocyte; design: timepoint 72 hour; settings: Plasmodium falciparum, NF54, Erythrocyte, 72 h
[4] = system: Plasmodium falciparum; experiment: Hit confirmation in dose-response curve in Dd2 pLDH assay, at 72h; assay type: functional, organism-based; design: timepoint 72 hour; settings: Dd2, Erythrocyte
[5] = system: Plasmodium falciparum; experiment: Hit confirmation in dose-response curve in NF54 pLDH assay, at 72h; assay type: functional, organism-based; design: timepoint 72 hour; settings: NF54, Erythrocyte

CC(C)(C)[C@H]1CCc2c(sc(NC(=O)C3(F)C(F)(F)C(F)(F)C(F)(F)C(F)(F)C3(F)F)c2C#N)C1
IC50 at 72 h [1]: 4.57 µM | IC50 [2]: 5.75 µM | IC50 [3]: 2.19 µM | IC50 [4]: 2.57 µM | IC50 [5]: 2.95 µM

O=C1NC(c2ccccc2)=NC12CCN(Cc1c(F)cccc1F)CC2
IC50 at 72 h [1]: > 10 µM | IC50 [2]: > 10 µM | IC50 [3]: 2.09 µM | IC50 [4]: 4.27 µM | IC50 [5]: 6.46 µM

COc1ccc(S(=O)(=O)N2CCC(c3cc(N)on3)CC2)cc1Cl
IC50 at 72 h [1]: > 10 µM | IC50 [2]: > 10 µM | IC50 [3]: 1.82 µM | IC50 [4]: 3.89 µM | IC50 [5]: 6.31 µM

O=C1NCCCOc2cccc(c2)[C@H]2c3ccc(cc3CCN2C(=O)CCN2CCOCC2)Oc2ccc(O)c1c2
IC50 at 72 h [1]: > 10 µM | IC50 [2]: > 10 µM | IC50 [3]: 2.24 µM | IC50 [4]: 4.07 µM | IC50 [5]: 8.13 µM

COc1ccc(CC(=O)N2N=C(C)C[C@]2(O)c2cccnc2)cc1
IC50 at 72 h [1]: > 10 µM | IC50 [2]: 1.02 µM | IC50 [3]: 2.95 µM | IC50 [4]: > 10 µM | IC50 [5]: > 10 µM

CCc1nc2cc(N3CCC(C(=O)Nc4ccc5c(c4)OCO5)CC3)cnc2nc1CC
IC50 at 72 h [1]: > 10 µM | IC50 [2]: 0.417 µM | IC50 [3]: 1.29 µM | IC50 [4]: > 10 µM | IC50 [5]: > 10 µM

Cc1cccc2ncnc(N(C)[C@@H](C)Cc3ccc(O)cc3)c12
IC50 at 72 h [1]: > 10 µM | IC50 [2]: 2.45 µM | IC50 [3]: 1.86 µM | IC50 [4]: 2.82 µM | IC50 [5]: 3.09 µM

COc1ccccc1CN1COc2cc3c(cc2C1)OCO3
IC50 at 72 h [1]: > 10 µM | IC50 [2]: 1.91 µM | IC50 [3]: 1.58 µM | IC50 [4]: 2.29 µM | IC50 [5]: 2.09 µM

COc1nc(NC2CCS(=O)(=O)CC2)ncc1F
IC50 at 72 h [1]: > 10 µM | IC50 [2]: > 10 µM | IC50 [3]: 0.0479 µM | IC50 [4]: > 10 µM | IC50 [5]: 0.0832 µM

O=C(Nc1cc(-c2onc3c2CCCC3)cc(C(F)(F)F)c1)c1cncc(Br)c1
IC50 at 72 h [1]: > 10 µM | IC50 [2]: 1.26 µM | IC50 [3]: 1.2 µM | IC50 [4]: 2.75 µM | IC50 [5]: 3.24 µM

CCc1ccc(CN2CCC[C@H](c3ncc[nH]3)C2)nc1
IC50 at 72 h [1]: > 10 µM | IC50 [2]: 10.7 µM | IC50 [3]: 1.15 µM | IC50 [4]: 1.78 µM | IC50 [5]: 1.55 µM

CCNc1ccnc(NCc2nc(-c3cccc(F)c3)c(-c3ccccn3)[nH]2)n1
IC50 at 72 h [1]: > 10 µM | IC50 [2]: 8.71 µM | IC50 [3]: 3.16 µM | IC50 [4]: > 10 µM | IC50 [5]: 5.75 µM

Fc1cnc(OC2Cc3ccccc3C2)nc1
IC50 at 72 h [1]: > 10 µM | IC50 [2]: > 10 µM | IC50 [3]: 1.86 µM | IC50 [4]: > 10 µM | IC50 [5]: 3.24 µM

Cn1ccnc1[C@@H]1CCCN1Cc1nccn1Cc1ccccc1
IC50 at 72 h [1]: > 10 µM | IC50 [2]: 6.76 µM | IC50 [3]: 2.09 µM | IC50 [4]: 3.24 µM | IC50 [5]: 2.82 µM

Cc1ccc(C2=C[C@@H](c3ccc(Cl)cc3)n3nc(NC(=O)c4ccccc4)nc3N2)cc1
IC50 at 72 h [1]: > 10 µM | IC50 [2]: 2.14 µM | IC50 [3]: 1.74 µM | IC50 [4]: 2.63 µM | IC50 [5]: 3.47 µM

C[N+]1(CCCC(=O)c2ccc3c(c2)OCCO3)CCC(c2ccccc2)C1 (stereo not given)
IC50 at 72 h [1]: > 10 µM | IC50 [2]: > 10 µM | IC50 [3]: 2.57 µM | IC50 [4]: 2.24 µM | IC50 [5]: 3.8 µM

c1coc(CNc2nc(Nc3cccc4ccccc34)nc3ccccc23)c1
IC50 at 72 h [1]: > 10 µM | IC50 [2]: 5.75 µM | IC50 [3]: 2.82 µM | IC50 [4]: 5.01 µM | IC50 [5]: 7.94 µM

CC(C)CCn1nnnc1[C@]1(N(C)C)CCCN(C(=O)c2cccn2C)C1
IC50 at 72 h [1]: > 10 µM | IC50 [2]: 0.275 µM | IC50 [3]: 0.309 µM | IC50 [4]: > 10 µM | IC50 [5]: > 10 µM

COc1ccc(-c2nn3c(N4CCN(CC=Cc5ccccc5)CC4)cc(C)nc3c2C)cc1OC
IC50 at 72 h [1]: > 10 µM | IC50 [2]: 3.89 µM | IC50 [3]: 1.74 µM | IC50 [4]: 5.37 µM | IC50 [5]: 7.76 µM

CCCC[C@H](Oc1ccc(C(C)(C)CC)cc1C(C)(C)CC)C(=O)Nc1ccc(NC(=O)C(F)(F)C(F)(F)C(F)(F)F)c(O)c1
IC50 at 72 h [1]: > 10 µM | IC50 [2]: 7.24 µM | IC50 [3]: 2.95 µM | IC50 [4]: 3.72 µM | IC50 [5]: > 10 µM

CCN1C(=O)c2ccccc2N2C(=O)CC[C@@]12C(=O)Nc1cccc(OC)c1
IC50 at 72 h [1]: > 10 µM | IC50 [2]: 1.7 µM | IC50 [3]: 1 µM | IC50 [4]: 1.23 µM | IC50 [5]: 1.35 µM

Oc1cc(CC[C@H]2CCCCN2)cc(-c2cnc3ccccc3n2)c1
IC50 at 72 h [1]: > 10 µM | IC50 [2]: 2.09 µM | IC50 [3]: 1.58 µM | IC50 [4]: 1.95 µM | IC50 [5]: 2.75 µM

C=C1C(C)C2C(Cc3c[nH]c4ccccc34)NC(=O)C23C(=O)CC(O)C(O)CC(C)C/C=C/C3C1O (stereo not given)
IC50 at 72 h [1]: > 10 µM | IC50 [2]: > 10 µM | IC50 [3]: 1.82 µM | IC50 [4]: 3.39 µM | IC50 [5]: 3.16 µM

COc1c(C)cc(C(=O)[C@H]2CCCN(c3cc(N)ncn3)C2)cc1C
IC50 at 72 h [1]: > 10 µM | IC50 [2]: 5.5 µM | IC50 [3]: 5.37 µM | IC50 [4]: > 10 µM | IC50 [5]: > 10 µM

CCN(CC)C(=O)c1cnc2snc(C)c2c1N1CCC(C(=O)Nc2c(C)cc(C)cc2C)CC1
IC50 at 72 h [1]: > 10 µM | IC50 [2]: 5.89 µM | IC50 [3]: 3.24 µM | IC50 [4]: > 10 µM | IC50 [5]: > 10 µM

COCCCn1c(NS(=O)(=O)c2ccccc2)c(S(=O)(=O)c2ccc(C)cc2)c2nc3ccccc3nc21
IC50 at 72 h [1]: > 10 µM | IC50 [2]: 6.17 µM | IC50 [3]: 4.68 µM | IC50 [4]: 8.91 µM | IC50 [5]: > 10 µM

COc1ccc(CCNc2oc(-c3cccnc3)nc2C#N)cc1OC
IC50 at 72 h [1]: > 10 µM | IC50 [2]: 2.4 µM | IC50 [3]: 3.98 µM | IC50 [4]: > 10 µM | IC50 [5]: > 10 µM

Cc1ccc(CN2CCN(C[C@@H](O)Cn3c4ccccc4n4c(=O)cc(C)c(C#N)c34)CC2)c(C)c1
IC50 at 72 h [1]: > 10 µM | IC50 [2]: 1.62 µM | IC50 [3]: 1.35 µM | IC50 [4]: 3.24 µM | IC50 [5]: 3.55 µM

O[C@@H](CNCc1ccsc1C(F)(F)F)c1cc(Cl)c2c(c1)OCCO2
IC50 at 72 h [1]: > 10 µM | IC50 [2]: 7.24 µM | IC50 [3]: 3.16 µM | IC50 [4]: 3.47 µM | IC50 [5]: 6.46 µM

CCc1ccc(/C=C/c2c[nH]c3ccccc23)[n+](CC)c1
IC50 at 72 h [1]: > 10 µM | IC50 [2]: > 10 µM | IC50 [3]: 0.263 µM | IC50 [4]: 0.372 µM | IC50 [5]: 0.513 µM

Cc1[nH]c2ncnc(NC(=O)c3cccc(-n4ccnn4)c3)c2c1C
IC50 at 72 h [1]: > 10 µM | IC50 [2]: > 10 µM | IC50 [3]: 8.13 µM | IC50 [4]: > 10 µM | IC50 [5]: > 10 µM

N#Cc1cccc(-c2n[nH]c3c2CN(c2ccc(-c4ccccc4)nn2)CC3)c1
IC50 at 72 h [1]: > 10 µM | IC50 [2]: 2.63 µM | IC50 [3]: 1.2 µM | IC50 [4]: 3.09 µM | IC50 [5]: 4.79 µM

O=C(Nc1cccc2cccnc12)c1ccccn1
IC50 at 72 h [1]: 3.47 µM | IC50 [2]: > 10 µM | IC50 [3]: 0.794 µM | IC50 [4]: 2 µM | IC50 [5]: 0.871 µM

CC(=O)Nc1ccc(-c2cn3c4ccccc4ccc3[n+]2C)cc1
IC50 at 72 h [1]: > 10 µM | IC50 [2]: > 10 µM | IC50 [3]: 0.49 µM | IC50 [4]: 1.41 µM | IC50 [5]: 0.263 µM

O=C(NCCN1CCCC1)c1ccc2nc(-c3ccc(Cl)cc3)cn2c1
IC50 at 72 h [1]: > 10 µM | IC50 [2]: 4.07 µM | IC50 [3]: 2.63 µM | IC50 [4]: 2.63 µM | IC50 [5]: 2.69 µM

Oc1c([C@@H](c2ccccn2)N2CCCC2)ccc2cccnc12
IC50 at 72 h [1]: > 10 µM | IC50 [2]: 3.55 µM | IC50 [3]: 2.14 µM | IC50 [4]: 2.34 µM | IC50 [5]: 7.76 µM

O=C(Nc1ccccc1Cl)N1CCC(N2CCc3sccc3C2)CC1
IC50 at 72 h [1]: > 10 µM | IC50 [2]: > 10 µM | IC50 [3]: 3.72 µM | IC50 [4]: 4.57 µM | IC50 [5]: 3.55 µM
